Laboratory results: patent US9034876B2, “Treatment of chronic inflammation with a 1,2,4-triazolo [1,5a] pyridine derivative” (Cephalon, Inc., priority 2010, dated 2015)

Experiments:
human TYK2 = human TYK2 (Homo sapiens, UniProt P29597); experiment: TYK2 kinase enzyme assay, TRF detection; format: biochemical; conditions: relative to JAK2
Description: (§1) The kinase activity of baculovirus-expressed human JAK kinases (JAK1, JAK2, JAK3 or TYK2) was measured using the time-resolved fluorescence (TRF) detection system as described elsewhere [17]. Each 96-well Costar high binding plate (Corning, Corning, N.Y.) was coated with 100 μl/well of 10 μg/ml neutravidin (Pierce Biotechnology, Rockford, Ill.) in TBS at 37° C. for 2 h, followed by 100 μl/well of 1 μg/ml 15-mer peptide substrate (biotinyl-amino-hexanoyl-[sequence]-amide, Infinity Biotech Research and Resource, Aston, Pa.) at 37° C. for 1 h. The kinase assay mixture (total volume=100 μl/well) consisting of 20 mM HEPES (pH 7.2), ATP (Km level for each kinase), 1 mM MnCl2, 0.1% BSA, and test Compound (diluted in DMSO; 2.5% DMSO final in assay) was added to the assay plate. The concentrations of ATP used were as follows: 0.2 μM ATP for JAK1, JAK2 and TYK2; 0.1 μM ATP for JAK3. Enzyme was added and the reaction was allowed to proceed for 20 min at RT. […] Plates were agitated for 10 min and the fluorescence of the resulting solution measured using the PerkinElmer EnVision® 2102 or 2104 multi-label plate reader. IC50 values were determined using the 4-parameter logistic model in XLFit® 4 (IDBS, Ltd., Guildford, UK).

pSTAT3 = experiment: Activity against pSTAT3 (another experiment)
CIA model, body mass = format: in vivo, female DBA/1 mice
Description: FIGS. 9A and 9B: Depict the effect of treatment on body mass and serum anti-CII autoantibody concentration in a CIA model.
Female DBA/1 mice were injected with purified collagen type II in CFA i.d. (intradermal) then boosted with collagen type II in IFA s.c. (subcutaneous) on day 21 followed by a day 28 LPS injection i.p. (intraperitoneal) to induce arthritis (CIA). Mice that scored a ‘1’ or better for each paw were considered arthritic and entered into the study, treatments started after several days of full arthritis. Compound A was provided orally, b.i.d., for each dose tested; Dex was provided i.p. at 1.5 mg/kg three times a week; vehicle (PEG400+1% DMSO) was provided orally, b.i.d.

[1] = system: collagen-antibody-induced arthritis (CAIA); experiment: Collagen-antibody-induced arthritis (CAIA) model, paw size and clinical score; format: in vivo, female DBA/1 mice; conditions: 55 mg/kg p.o. b.i.d., day 13
Description: Female DBA/1 mice were injected i.v. (intravenous) with purified anti-collagen type II antibodies, then given 25 μg of LPS (lipopolysaccharide), i.p. (intraperitoneal), three days later to induce arthritis by day 5. Mice that met the arthritis criteria score of 1 per paw were entered into the study. Compound A was administered orally, b.i.d. (twice daily), for all doses tested; Dex (Dexamethasone) was administered at 1.5 mg/kg three times a week, i.p.; and vehicle (PEG400+1% DMSO) was administered orally.
Anti-collagen type II antibody was delivered to mice i.v. and oral administration of Compound A was initiated upon meeting minimum score requirements and entry into dosage groups. Compound A was administered at 10, 30 or 55 mg/kg p.o. twice daily for two weeks total. Vehicle groups were treated with PEG400 in 1% DMSO; dexamethasone (Dex) was used as a glucocorticoid standard of care reference. Dex was given i.p. in saline alone, three times a week (every 48 hours) at 1.5 mg/kg of total body mass.
Acclimated mice were randomized, pre-bled and measured for baseline inflammation before any studies were initiated. On day 0, DBA/1 female mice were injected i.v. with 100 μl of a saline solution containing 1.5 mg of a 10 mg/ml cocktail of arthritogenic monoclonal antibodies directed against different epitopes of collagen type II (Chondrex, Redmond, Wash.) suspended in saline. […]

[2] = system: pro-inflammatory cytokines in paw extracts; experiment: CAIA model, paw cytokines (Luminex bead assay); format: in vivo, female DBA/1 mice
Description: DBA/1 female mice were injected i.v. with purified anti-collagen type II antibodies, then given 25 μg of LPS i.p. three days later to induce arthritis by day 5. Mice that met the arthritis criteria score of 1 per paw were entered into the study.
The cytokines were measured using known procedures [32].
(§2) Briefly, the front (including carpus) and back (including tarsus) right paws were collected and frozen in dry-ice cooled isopentane and stored at −80° C. until use. The paws were cut to 2 mm×2 mm segments and kept on dry-ice in round bottom polypropylene tubes. Seven hundred microliters tissue extraction buffer containing protease inhibitor cocktail (Calbiochem, San Diego, Calif.) and Halt phosphatase inhibitor cocktail (Thermo Scientific, Rockford, Ill.) or Roche phosphatase inhibitor cocktail (Roche, Indianapolis, Ind.) in tissue extraction reagent I (Invitrogen, Carlesbad, Calif.) were added to each sample. Samples were homogenized frozen using a PT 10-35 Polytron homogenizer. After homogenization, samples were centrifuged at 4° C. for 2000×g for 10 minutes and supernatants re-centrifuged at 4° C. at maximum speed, 14,000×g, for 15 minutes. Supernatants were carefully removed to avoid picking up the top layer of lipids/adipose debris. Protein concentration was measured using a BCA protein assay (Pierce, Rockford, Ill.) and adjusted to 3 mg/ml. A minimum of 25 μl of this extraction was used in the above described protocol using the mouse cytokine 10-plex bead kit (Invitrogen, Carlsbad, Calif.) or phosphorylated STAT1, 3, 5a/b, 3-plex kit (Invitrogen, Carlsbad, Calif.).

EGFR = EGFR (Homo sapiens, UniProt P00533); experiment: Kinase profiling panel, EGFR; format: binding; conditions: 1 μM
Sequence of EGFR (P00533 25-1210, species assumed): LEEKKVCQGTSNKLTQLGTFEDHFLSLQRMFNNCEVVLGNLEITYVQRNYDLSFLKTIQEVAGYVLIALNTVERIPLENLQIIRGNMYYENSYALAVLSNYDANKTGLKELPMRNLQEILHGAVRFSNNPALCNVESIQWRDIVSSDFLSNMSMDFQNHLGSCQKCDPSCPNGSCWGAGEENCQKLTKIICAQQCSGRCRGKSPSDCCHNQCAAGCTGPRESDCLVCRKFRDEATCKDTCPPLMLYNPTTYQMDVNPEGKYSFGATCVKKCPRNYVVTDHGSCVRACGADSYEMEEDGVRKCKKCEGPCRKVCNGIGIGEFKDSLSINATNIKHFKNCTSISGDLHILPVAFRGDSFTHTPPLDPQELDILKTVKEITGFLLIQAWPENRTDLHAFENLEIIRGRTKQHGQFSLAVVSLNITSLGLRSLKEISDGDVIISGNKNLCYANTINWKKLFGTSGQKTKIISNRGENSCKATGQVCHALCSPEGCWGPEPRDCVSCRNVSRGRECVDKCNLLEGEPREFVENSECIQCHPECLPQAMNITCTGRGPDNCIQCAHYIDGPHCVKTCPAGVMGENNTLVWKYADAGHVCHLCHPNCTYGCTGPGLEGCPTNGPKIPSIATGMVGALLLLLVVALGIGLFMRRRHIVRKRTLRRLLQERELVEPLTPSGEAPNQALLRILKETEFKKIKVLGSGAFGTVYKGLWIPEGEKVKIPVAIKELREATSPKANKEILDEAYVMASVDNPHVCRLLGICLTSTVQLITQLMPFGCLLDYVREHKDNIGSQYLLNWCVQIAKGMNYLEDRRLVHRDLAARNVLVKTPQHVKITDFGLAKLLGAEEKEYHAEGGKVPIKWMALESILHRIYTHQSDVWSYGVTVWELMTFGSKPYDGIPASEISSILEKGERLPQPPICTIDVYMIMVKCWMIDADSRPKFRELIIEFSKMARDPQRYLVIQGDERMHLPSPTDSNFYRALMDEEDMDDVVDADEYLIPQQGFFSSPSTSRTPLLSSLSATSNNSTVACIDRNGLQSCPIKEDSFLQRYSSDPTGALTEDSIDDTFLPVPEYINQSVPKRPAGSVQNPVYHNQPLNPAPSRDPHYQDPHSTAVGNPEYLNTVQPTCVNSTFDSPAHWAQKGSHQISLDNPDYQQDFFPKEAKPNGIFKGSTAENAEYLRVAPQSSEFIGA
Description: (§3) The ability of Compound A to inhibit other members of the kinome was also assessed using binding assays for a panel of 402 kinases [25].

phospho-STAT3 [3] = experiment: CAIA model, paw phospho-STAT3 (Luminex bead assay); format: in vivo, female DBA/1 mice; conditions: for reduction in paw pSTAT3 compared with Dex: within 24 hours of treatment (day 6-7); for phospho-STAT3 levels in the paw: 55 mg/kg
Description: DBA/1 female mice were injected i.v. with purified anti-collagen type II antibodies, then given 25 μg of LPS i.p. three days later to induce arthritis by day 5. Mice that met the arthritis criteria score of 1 per paw were entered into the study. Compound A was provided orally, b.i.d., for all doses tested; Dex was provided at 1.5 mg/kg three times a week, i.p.; and vehicle (PEG400+1% DMSO) was provided orally.
The graphed data was generated using Luminex® bead kits, concentration in units per ml per 3 mg of total protein as determined by the BSA assay. The graphed data represents mean±SEM, statistics were performed using 2-way ANOVA analysis.
To investigate the effect of Compound A on levels of phosphorylated STATs and cytokines in the paws of treated mice, a method was developed whereby synovial fluid and cellular joint extracts could be obtained from the paws and ankles of diseased animals for analysis using multiplex bead arrays [32]. […] Consequently, multiplex analysis was used as the primary method of measuring phosphorylated STATs for all experiments described herein.
as §2

human JAK1 = target: T1, human JAK1 (Homo sapiens, UniProt P23458); experiment: JAK1 kinase enzyme assay, TRF detection; format: biochemical; conditions: relative to JAK2
T1 construct: host or cells: baculovirus expression
T1 sequence (P23458 whole entry): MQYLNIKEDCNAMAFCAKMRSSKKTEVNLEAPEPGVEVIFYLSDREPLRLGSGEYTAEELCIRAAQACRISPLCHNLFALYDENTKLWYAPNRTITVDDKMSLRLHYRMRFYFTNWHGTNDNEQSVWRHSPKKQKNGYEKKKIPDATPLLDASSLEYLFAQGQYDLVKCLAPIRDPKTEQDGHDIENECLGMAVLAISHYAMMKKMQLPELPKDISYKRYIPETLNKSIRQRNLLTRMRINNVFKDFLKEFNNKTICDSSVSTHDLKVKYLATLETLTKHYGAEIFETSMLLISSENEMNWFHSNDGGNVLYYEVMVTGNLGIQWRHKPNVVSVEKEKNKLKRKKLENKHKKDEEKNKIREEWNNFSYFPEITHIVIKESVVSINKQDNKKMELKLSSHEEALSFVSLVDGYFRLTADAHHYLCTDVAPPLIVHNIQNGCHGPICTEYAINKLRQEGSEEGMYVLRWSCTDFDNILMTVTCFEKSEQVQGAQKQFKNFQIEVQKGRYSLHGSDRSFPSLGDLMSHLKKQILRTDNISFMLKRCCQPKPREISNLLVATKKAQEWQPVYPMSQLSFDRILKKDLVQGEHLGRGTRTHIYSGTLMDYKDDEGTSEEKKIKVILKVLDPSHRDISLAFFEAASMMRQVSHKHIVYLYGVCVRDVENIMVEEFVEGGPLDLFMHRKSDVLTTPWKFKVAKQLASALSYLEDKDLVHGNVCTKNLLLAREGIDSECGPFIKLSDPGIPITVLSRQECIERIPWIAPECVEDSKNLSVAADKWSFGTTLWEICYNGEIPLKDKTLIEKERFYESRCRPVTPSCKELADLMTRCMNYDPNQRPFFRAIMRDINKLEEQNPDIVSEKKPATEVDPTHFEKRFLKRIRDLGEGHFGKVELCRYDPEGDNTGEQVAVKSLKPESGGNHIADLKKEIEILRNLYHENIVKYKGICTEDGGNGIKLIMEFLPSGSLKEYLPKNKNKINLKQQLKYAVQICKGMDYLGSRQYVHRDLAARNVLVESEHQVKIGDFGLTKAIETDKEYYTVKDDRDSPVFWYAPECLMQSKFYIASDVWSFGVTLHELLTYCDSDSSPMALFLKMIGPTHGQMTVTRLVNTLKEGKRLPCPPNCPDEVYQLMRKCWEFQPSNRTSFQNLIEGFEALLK
Description: as §1

phospho-STAT3 [4] = experiment: CIA model, paw phospho-STAT3; format: in vivo, female DBA/1 mice
Description: Female DBA/1 mice were injected with purified collagen type II in CFA i.d. (intradermal), then boosted with collagen type II in IFA, s.c., (subcutaneous) on day 21 followed by a day 28 LPS injection i.p. to induce arthritis (CIA). Mice that scored a ‘1’ or better for each paw were considered arthritic and entered into the study. Treatments started after 7-10 days of arthritis induction. Compound A was provided orally, b.i.d., for all doses tested; Dex was administered i.p. at 1.5 mg/kg, three times a week; and vehicle (PEG400+1% DMSO) was provided orally, b.i.d.
FIG. 4B: Depicts Phospho-STAT3 expression in arthritic paws for each treatment group.
A more detailed description of this method can be found described elsewhere (Lu et al, 2010, submitted for publication). Briefly, the front (including carpus) and back (including tarsus) right paws were collected and frozen in dry-ice cooled isopentane and stored at −80° C. until use. The paws were cut to 2 mm×2 mm segments and kept on dry-ice in round bottom polypropylene tubes. […] Protein concentration was measured using a BCA protein assay (Pierce, Rockford, Ill.) and adjusted to 3 mg/ml. […]

[5] = system: collagen-induced arthritis (CIA); experiment: CIA model, joint histopathology; format: in vivo, female DBA/1 mice
Description: Tissues were also stained with Safranin-O to detect matrix degeneration and this information was used for scoring. The data in the figure represents mean±SEM, statistics were performed using Prism® software and 2-way ANOVA analysis, *p<0.05, **p<0.01, ***p<0.001. H&E and safranin-O stained paraffin wax embedded carpus and tarsus sections were scored by a board certified, independent pathologist for the criteria described in the materials and methods. Tabulated data represent mean±SD values for the tarsus only. Statistics were performed using 2-way ANOVA analysis, *p<0.05; **p<0.01; ***p<0.001, N=5 mice per group tested. At the end of each experiment, front and hind paws (including carpus and tarsus) were removed from the body of the animal for histological analysis. Skin from the ends of the digits was removed and the metatarsal region skin perforated using surgical scissors to allow full decalcification. Samples followed a decalcification procedure using formic acid as described elsewhere [21, 22]. After 7-10 days of decalcification, samples were washed for 2 hours in distilled water and stored in 70% ethanol at 4° C. until ready to be processed. Samples were paraffin embedded, sectioned and stained with Hematoxylin and Eosin (H&E) stain, also Safranin-O for matrix degradation (images not shown, used by pathologist for scoring). All histology work was performed at the Wistar Institute (Philadelphia, Pa.). […] A total of five mice from each group were analyzed via histopathology, 10× representative images are shown for each group tested.

[6] = system: collagen-antibody-induced arthritis (CAIA); experiment: CAIA model, joint histopathology scores; format: in vivo, female DBA/1 mice; conditions: compared to vehicle controls
Description: Tissues were also stained with Safranin-O to evaluate matrix degeneration. Five representative mice from each group were sent for histological analysis and graded according to a scoring method described herein. The data in the figures represent mean±SEM, all statistics were performed using Prism® software and 2-way ANOVA analysis. H&E and Safranin-O stained paraffin wax embedded carpus and tarsus sections were scored by a board certified, independent pathologist for the criteria described in the materials and methods. Tabulated data represent mean±SD (standard deviation) values for the tarsus only. Statistics were performed using 2-way ANOVA analysis, *p<0.05; **p<0.01; ***p<0.001, N=5 mice per group tested. At the end of each experiment, front and hind paws (including carpus and tarsus) were removed from the body of the animal for histological analysis. Skin from the ends of the digits was removed and the metatarsal region skin perforated using surgical scissors to allow full decalcification. […] After 7-10 days of decalcification, samples were washed for 2 hours in distilled water and stored in 70% ethanol at 4° C. until ready to be processed. […] A total of five mice from each group were analyzed via histopathology, 10× representative images are shown for each group tested.

panel of 402 kinases = experiment: Kinome binding assays, selectivity panel; conditions: test concentration 1 μM
[7] = system: carrageenan-induced inflammation; experiment: Air pouch mouse model of carrageenan-induced inflammation; format: in vivo, Balb/c mice; conditions: 10, 30 and 55 mg/kg into the pouch, 24 hours, p<0.05 vs vehicle
Description: Balb/c mice were induced for air pouch initiation (see materials and methods) using sterile air. Carrageenan at 1% in saline was injected directly into the pouch followed by treatment with Compound A or dexamethasone (Dex) 1 hour later. One-hundred microliters of air pouch fluid was removed 24 hours post-administration. FIG. 5A: Depicts total cell count using 7-AAD exclusion via flow cytometeric analysis and BD TruCount beads. FIG. 5B: Depicts fluid supernatant IL-6 concentration as determined by Luminex® cytokine analysis. FIG. 5C: Depicts hemoglobin content as assessed by the Drabkin's assay. All data shown in the figures represent mean±SEM, and statistics were performed using 2-way ANOVA analysis, *p<0.05, N=5 mice per group tested. To test the impact of Compound A inhibition of JAK2 at the cellular level, the mouse air pouch model (APM) was utilized. Air-filled subcutaneous pouches were maintained under sterile conditions and injected with 1% carrageenan simultaneously with Compound A at 10, 30 and 55 mg/kg. Saline alone (vehicle) or dexamethasone at 1.5 mg/kg were used as controls. […] Briefly, Balb/c mice were injected s.c. with 4 ml of sterile air on day −5, baseline measurements were recorded and mice were randomized into groups. Mice entered the study upon air pouch maintenance by day −3 when 2 ml of sterile air is injected for air pouch maintenance. On day 0 mice were given a 1% carrageenan (Sigma, St. Louis, Mo.) injection suspended in saline directly into the air pouch. This induces a rapid inflammatory influx of primarily neutrophils and macrophage. The test compounds were provided in saline at mg/kg concentrations in 100 μl total volume and introduced directly into the air pouch simultaneously with the carrageenan injection, (1% carrageenan in saline). […] Cellular exudates were centrifuged, supernatants were processed for Luminex cytokine analysis, and the cell pellets were counted for total live and dead cells. […] Hemoglobin content was determined using the Drabkin's assay (Sigma, St. Louis, Mo.).

Src kinase = Src kinase (Homo sapiens, UniProt P12931); experiment: Kinase profiling panel, Src; format: binding; conditions: 1 μM
Sequence of Src kinase (P12931 whole entry): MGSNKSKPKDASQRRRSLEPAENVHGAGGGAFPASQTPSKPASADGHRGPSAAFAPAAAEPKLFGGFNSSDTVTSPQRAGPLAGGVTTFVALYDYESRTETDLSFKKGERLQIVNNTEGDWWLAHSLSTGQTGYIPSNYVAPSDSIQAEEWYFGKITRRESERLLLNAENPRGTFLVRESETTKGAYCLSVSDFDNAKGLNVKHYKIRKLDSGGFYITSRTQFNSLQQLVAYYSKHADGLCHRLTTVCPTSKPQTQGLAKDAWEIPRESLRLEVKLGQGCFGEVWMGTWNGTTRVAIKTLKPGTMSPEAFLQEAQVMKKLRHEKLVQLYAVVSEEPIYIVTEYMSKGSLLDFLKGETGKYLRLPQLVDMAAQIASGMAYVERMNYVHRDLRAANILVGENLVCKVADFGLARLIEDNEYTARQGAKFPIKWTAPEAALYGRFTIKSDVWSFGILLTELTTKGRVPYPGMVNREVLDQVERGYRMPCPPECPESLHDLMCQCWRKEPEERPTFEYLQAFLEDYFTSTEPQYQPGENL
Description: as §3

Sequence of human TYK2 (P29597 whole entry): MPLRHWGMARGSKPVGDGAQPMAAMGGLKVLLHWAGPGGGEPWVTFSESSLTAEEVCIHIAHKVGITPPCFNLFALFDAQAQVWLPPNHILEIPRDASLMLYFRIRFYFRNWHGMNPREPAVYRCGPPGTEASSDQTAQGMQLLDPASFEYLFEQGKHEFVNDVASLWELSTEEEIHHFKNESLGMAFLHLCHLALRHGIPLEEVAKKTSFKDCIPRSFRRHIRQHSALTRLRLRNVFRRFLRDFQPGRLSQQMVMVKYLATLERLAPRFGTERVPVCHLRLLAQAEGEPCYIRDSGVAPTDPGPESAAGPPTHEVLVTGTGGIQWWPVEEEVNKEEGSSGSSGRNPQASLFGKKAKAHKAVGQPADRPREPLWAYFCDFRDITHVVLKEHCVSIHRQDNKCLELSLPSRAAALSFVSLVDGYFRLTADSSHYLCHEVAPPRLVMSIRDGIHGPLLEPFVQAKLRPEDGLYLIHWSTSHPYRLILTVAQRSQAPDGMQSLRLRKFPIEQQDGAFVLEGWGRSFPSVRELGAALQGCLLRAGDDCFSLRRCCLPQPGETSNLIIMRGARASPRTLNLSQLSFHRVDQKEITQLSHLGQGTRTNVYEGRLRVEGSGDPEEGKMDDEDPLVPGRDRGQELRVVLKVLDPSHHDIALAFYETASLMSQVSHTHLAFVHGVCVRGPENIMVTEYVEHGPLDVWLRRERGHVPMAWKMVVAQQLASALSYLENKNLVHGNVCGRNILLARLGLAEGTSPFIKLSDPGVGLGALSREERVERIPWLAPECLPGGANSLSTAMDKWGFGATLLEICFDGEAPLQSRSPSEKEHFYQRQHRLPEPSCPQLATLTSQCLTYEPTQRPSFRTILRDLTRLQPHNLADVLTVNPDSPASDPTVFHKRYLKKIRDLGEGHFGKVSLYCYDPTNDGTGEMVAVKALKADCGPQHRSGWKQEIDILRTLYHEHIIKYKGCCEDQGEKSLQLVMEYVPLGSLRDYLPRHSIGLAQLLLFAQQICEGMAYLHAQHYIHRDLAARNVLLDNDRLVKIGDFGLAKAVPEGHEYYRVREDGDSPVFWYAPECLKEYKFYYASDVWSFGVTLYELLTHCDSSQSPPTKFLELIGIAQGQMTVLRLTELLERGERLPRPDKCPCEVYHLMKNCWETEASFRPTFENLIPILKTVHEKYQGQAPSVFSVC

selectivity against TYK2 (human TYK2): > 800 fold
body mass (CIA model, body mass): did not significantly change
activity against EGFR in profiling panel (EGFR): lacked activity
selectivity versus JAK1 (human JAK1): > 40 fold
share of the panel inhibited by >90% (panel of 402 kinases; 402 kinases): 9%
share of the panel inhibited by >99% (panel of 402 kinases; 402 kinases): 1%
selectivity score S(90)402 (panel of 402 kinases; score of Karaman et al): 0.09
selectivity score S(99)402 (panel of 402 kinases; score of Karaman et al): 0.01
activity against Src in profiling panel (Src kinase): lacked activity
Compound: CN1CCN(c2cccc(Nc3nc4c(-c5ccc(S(C)(=O)=O)cc5)cccn4n3)c2)CC1 [Compound A, [8-(4-Methanesulfonyl-phenyl)-[1,2,4]triazolo[1,5-a]pyridin-2-yl]-[3-(4-methyl-piperazin-1-yl)-phenyl]-amine]
activity against pSTAT3 (pSTAT3): exhibited some activity against pSTAT3
drop in mean paw thickness or size compared to vehicle [1]: 1.3 fold
reduction in total clinical score compared to vehicle [1]: 2.4 fold
paw IL-6 concentration ([2]; CAIA experiment, 4 hours post dosing, p<0.05): reduction in paw IL-6
level of pro-inflammatory cytokines in paw extracts ([2]; CAIA, 55 mg/kg): significantly reduced the level of several of the cytokines
cytokine suppression over the study (IL-1β, IL-6, TNFα, IL-12) ([2]; CAIA, 55 mg/kg, p<0.01 vs vehicle): lowered and sustained cytokine suppression for the remainder of the study
level of pro-inflammatory cytokines in paw extracts ([2]; CAIA, 100 mg/kg): significantly reduced the level of several of the cytokines
dose dependence of cytokine reduction in paw extracts ([2]; CAIA, 30, 55 and 100 mg/kg, especially GM-CSF, IL-12, IL-2, IL-4): Dose-dependent reductions were observed for all cytokines tested
paw cytokine expression compared with Dex group ([2]; CAIA, several of the cytokines tested, p<0.05 vs vehicle): significantly decreased cytokine expression below the levels observed in the Dex treatment group
reduction in paw pSTAT3 compared with Dex (phospho-STAT3 [3]; 30 mg/kg b.i.d., p<0.01 vs vehicle): significantly greater than that of Dex
reduction in paw pSTAT3 compared with Dex (phospho-STAT3 [3]; 55 mg/kg b.i.d., p<0.001 vs vehicle): significantly greater than that of Dex
phospho-STAT3 levels in the paw (phospho-STAT3 [3]; 2 hours after administration): nearly abolished
phospho-STAT3 levels in the paw (phospho-STAT3 [3]; 6 hours post-administration): only slowly began to recover
paw pSTAT3 expression, remainder of the experiment (phospho-STAT3 [3]; b.i.d. treatment): reduced pSTAT3 expression to the lower limits of the assay
paw pSTAT3 (phospho-STAT3 [4]; 55 mg/kg, p<0.01): significantly reduced
paw pSTAT3 (phospho-STAT3 [4]; 100 mg/kg, p<0.001): significantly reduced
histological protection of the tarsus ([5]; 55 mg/kg): provided protection in the tarsus
histopathology scores, significance versus vehicle ([5]; 55 mg/kg, p<0.05): Significance was only observed for the degree of inflammation
histological protection of carpus and tarsus ([5]; 100 mg/kg): provided the best protection for both regions
histological protection of the tarsus ([5]; 100 mg/kg): provided protection in the tarsus
histopathology scores, significance versus vehicle ([5]; 100 mg/kg, p<0.01): Significance was only observed for the degree of inflammation
histopathology parameters (matrix erosions, subchondral osteolysis, osteoproliferation, synovial proliferation, pannus formation, degree of inflammation) [6]: significantly decrease several parameters
air pouch fluid IL-6 expression [7]: inhibit the expression of IL-6 to below that of Dex
angiogenesis, total hemoglobin content (Drabkin's assay) [7]: angiogenesis was impacted
cellular accumulation in the air pouch (total cell count) [7]: significantly decreased cellular accumulation in the air pouch
